We go through two molecules from patent US9440943B2, “Tricyclic sulfone compounds and methods of making and using same” (Zafgen, Inc., priority 2012, dated 2016).

The target of the experiment is T1, Human recombinant MetAP2 (Homo sapiens, UniProt P50579).
T1 construct: made in house; host or cells: Sf9 insect cells
Kind of experiment: recombinant human MetAP2 inhibition assay (MAS substrate, amino acid oxidase/Amplex red fluorescence). Type of experiment: biochemical. The conditions noted are these: manganese enzyme, 30 minutes at 25° C., pH 7.5, 0.75 mM MAS substrate, 1% DMSO. How it is done:
Compounds are tested for their capacity to inhibit recombinant human MetAP2 activity using the following assay.
Human recombinant MetAP2 expressed in Sf9 cells followed by affinity purification and EDTA treatment to remove endogenous active site cation was dialysed against MnCl2 to produce the manganese enzyme used in the assay. The assay was carried out for 30 minutes at 25° C. in 50 mM HEPES buffer containing 100 mM NaCl, at pH 7.5. The presence of 0.75 mM Methionine-Alanine-Serine (MAS) substrate and 50 μg/mL amino acid oxidase using a dilution of purified MetAP2 gives >3-fold signal:noise. Cleavage of the substrate by MetAP2 and oxidation of free methionine by amino acid oxidase was detected and quantified using fluorescence generated by Amplex red (10-acetyl-3,7-dihydroxyphenoxazine) in combination with horseradish peroxidase which detects H2O2 released during the oxidation step. The fluorescent signal was detected using a multiwell fluorimeter. Compounds were diluted in DMSO prior to addition to assay buffer, the final DMSO concentration in the assay being 1%.
The IC50 is defined as the concentration at which a given compound achieves 50% inhibition of control. IC50 values are calculated using the XLfit software package (version 2.0.5).

SMILES strings stand for the structures. pIC50: −log10 of the molar value.

In general, pIC50 refers to the IC50 on a negative log10 scale, so that one unit is a factor of ten.

T1 sequence (P50579 whole entry): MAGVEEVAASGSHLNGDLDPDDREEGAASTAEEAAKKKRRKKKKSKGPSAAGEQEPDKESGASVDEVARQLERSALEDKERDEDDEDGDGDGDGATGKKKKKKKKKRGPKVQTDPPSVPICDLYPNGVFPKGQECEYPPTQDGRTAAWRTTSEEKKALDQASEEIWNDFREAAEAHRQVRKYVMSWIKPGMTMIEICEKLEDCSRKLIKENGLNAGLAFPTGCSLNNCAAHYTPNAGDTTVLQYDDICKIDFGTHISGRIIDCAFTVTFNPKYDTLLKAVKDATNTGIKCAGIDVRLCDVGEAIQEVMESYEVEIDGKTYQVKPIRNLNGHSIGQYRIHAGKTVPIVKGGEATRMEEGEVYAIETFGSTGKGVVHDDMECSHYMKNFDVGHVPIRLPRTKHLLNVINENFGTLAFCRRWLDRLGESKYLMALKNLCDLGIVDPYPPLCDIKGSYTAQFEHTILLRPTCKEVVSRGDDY

Take `CCN(CC)C/C=C\c1cc(F)ccc1S(=O)(=O)Cc1ccc2c(c1C(=O)O)OC[C@@H]1C[C@H]21` [Example 2]: the pIC50 was under 7.00.
Regarding `CCN(CC)C/C=C\c1cc(F)ccc1S(=O)(=O)Cc1ccc2c(c1C(=O)O)OC[C@H]1C[C@@H]21` (racemic) [Example 1, Cis-(1aRS,7bSR)-5-[2-((Z)-3-diethylaminoprop-1-enyl)-4-fluoro-benzenesulfonylmethyl]-1,1a,2,7b-tetrahydrocyclopropa[c]chromene-4-carboxylic acid], the pIC50 was under 7.00.
